Measurements from the supplement of paper PMC10307832.

Key:
Assay in all cases: relative viability (nuclei count vs DMSO), 5 days (fraction); higher = more cells survive
EKVX = tested on: EKVX
Summary of the method: (§1)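 Relative viability equals treated-well nuclei counts divided by vehicle-well nuclei counts. Counts came from 4× images of lung cancer cell lines grown in 1536-well plates for 5 days after pin-tool dosing on the day after seeding. Dosing used one drug alone or a fixed anchor-drug dose plus five library-drug doses (not always all listed) in √10 steps, and values are medians of duplicate plates.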

COR-L 105 = tested on: COR-L 105
Summary of the method: as §1

NCI-H1437 = tested on: NCI-H1437
Summary of the method: as §1

NCI-H2170 = tested on: NCI-H2170
Summary of the method: as §1

SW 900 = tested on: SW 900
Summary of the method: as §1

201T = tested on: 201T
Summary of the method: as §1

NCI-H460 = tested on: NCI-H460
Summary of the method: as §1

HCC-366 = tested on: HCC-366
Summary of the method: as §1

NCI-H441 = tested on: NCI-H441
Summary of the method: as §1

NCI-H727 = tested on: NCI-H727
Summary of the method: as §1

LK-2 = tested on: LK-2
Summary of the method: as §1

HARA = tested on: HARA
Summary of the method: as §1

NCI-H3122 = tested on: NCI-H3122
Summary of the method: as §1

PC-14 = tested on: PC-14
Summary of the method: as §1

NCI-H1666 = tested on: NCI-H1666
Summary of the method: as §1

NCI-H1650 = tested on: NCI-H1650
Summary of the method: as §1

ABC-1 = tested on: ABC-1
Summary of the method: as §1

NCI-H661 = tested on: NCI-H661
Summary of the method: as §1

LOU-NH91 = tested on: LOU-NH91
Summary of the method: as §1

NCI-H2009 = tested on: NCI-H2009
Summary of the method: as §1

BEN = tested on: BEN
Summary of the method: as §1

Structure (SMILES): CC(=O)O[C@@]12CO[C@@H]1C[C@H](O)[C@@]1(C)C(=O)[C@H](O)C3=C(C)[C@@H](OC(=O)[C@H](O)[C@@H](NC(=O)OC(C)(C)C)c4ccccc4)C[C@@](O)([C@@H](OC(=O)c4ccccc4)[C@H]21)C3(C)C [Docetaxel] + Nc1ncn([C@H]2C[C@H](O)[C@@H](CO)O2)c(=O)n1 [Decitabine] (partner 2 µM)
- relative viability (EKVX; first compound 0.0002 µM): 0.279
- relative viability (EKVX; first compound 0.000632 µM): 0.327
- relative viability (EKVX; first compound 0.002 µM): 0.26
- relative viability (EKVX; first compound 0.006325 µM): 0.198
- relative viability (EKVX; first compound 0.02 µM): 0.134
- relative viability (COR-L 105; first compound 0.0002 µM): 0.666
- relative viability (COR-L 105; first compound 0.000632 µM): 0.533
- relative viability (COR-L 105; first compound 0.002 µM): 0.442
- relative viability (COR-L 105; first compound 0.006325 µM): 0.394
- relative viability (COR-L 105; first compound 0.02 µM): 0.364
- relative viability (NCI-H1437; first compound 0.0002 µM): 0.526
- relative viability (NCI-H1437; first compound 0.000632 µM): 0.629
- relative viability (NCI-H1437; first compound 0.002 µM): 0.406
- relative viability (NCI-H1437; first compound 0.006325 µM): 0.307
- relative viability (NCI-H1437; first compound 0.02 µM): 0.196
- relative viability (NCI-H2170; first compound 0.0002 µM): 0.472
- relative viability (NCI-H2170; first compound 0.000632 µM): 0.437
- relative viability (NCI-H2170; first compound 0.002 µM): 0.371
- relative viability (NCI-H2170; first compound 0.006325 µM): 0.172
- relative viability (NCI-H2170; first compound 0.02 µM): 0.151
- relative viability (SW 900; first compound 0.0002 µM): 0.485
- relative viability (SW 900; first compound 0.000632 µM): 0.344
- relative viability (SW 900; first compound 0.002 µM): 0.323
- relative viability (SW 900; first compound 0.006325 µM): 0.296
- relative viability (SW 900; first compound 0.02 µM): 0.212
- relative viability (201T; first compound 0.0002 µM): 0.782
- relative viability (201T; first compound 0.000632 µM): 0.778
- relative viability (201T; first compound 0.002 µM): 0.701
- relative viability (201T; first compound 0.006325 µM): 0.47
- relative viability (201T; first compound 0.02 µM): 0.331
- relative viability (NCI-H460; first compound 0.0002 µM): 0.443
- relative viability (NCI-H460; first compound 0.002 µM): 0.061
- relative viability (NCI-H460; first compound 0.006325 µM): 0.0383
- relative viability (NCI-H460; first compound 0.02 µM): 0.0286
- relative viability (HCC-366; first compound 0.0002 µM): 0.292
- relative viability (HCC-366; first compound 0.000632 µM): 0.12
- relative viability (HCC-366; first compound 0.002 µM): 0.107
- relative viability (HCC-366; first compound 0.006325 µM): 0.0547
- relative viability (HCC-366; first compound 0.02 µM): 0.0292
- relative viability (NCI-H441; first compound 0.0002 µM): 0.25
- relative viability (NCI-H441; first compound 0.000632 µM): 0.234
- relative viability (NCI-H441; first compound 0.002 µM): 0.178
- relative viability (NCI-H441; first compound 0.006325 µM): 0.2
- relative viability (NCI-H441; first compound 0.02 µM): 0.163
- relative viability (NCI-H727; first compound 0.0002 µM): 0.738
- relative viability (NCI-H727; first compound 0.000632 µM): 0.895
- relative viability (NCI-H727; first compound 0.002 µM): 0.709
- relative viability (NCI-H727; first compound 0.006325 µM): 0.663
- relative viability (NCI-H727; first compound 0.02 µM): 0.788
- relative viability (LK-2; first compound 0.0002 µM): 0.348
- relative viability (LK-2; first compound 0.000632 µM): 0.224
- relative viability (LK-2; first compound 0.002 µM): 0.115
- relative viability (LK-2; first compound 0.006325 µM): 0.126
- relative viability (LK-2; first compound 0.02 µM): 0.13
- relative viability (HARA; first compound 0.0002 µM): 0.459
- relative viability (HARA; first compound 0.000632 µM): 0.314
- relative viability (HARA; first compound 0.002 µM): 0.249
- relative viability (HARA; first compound 0.006325 µM): 0.187
- relative viability (HARA; first compound 0.02 µM): 0.111
- relative viability (NCI-H3122; first compound 0.0002 µM): 0.441
- relative viability (NCI-H3122; first compound 0.000632 µM): 0.409
- relative viability (NCI-H3122; first compound 0.002 µM): 0.265
- relative viability (NCI-H3122; first compound 0.006325 µM): 0.182
- relative viability (NCI-H3122; first compound 0.02 µM): 0.126
- relative viability (PC-14; first compound 0.0002 µM): 0.175
- relative viability (PC-14; first compound 0.000632 µM): 0.107
- relative viability (PC-14; first compound 0.002 µM): 0.0764
- relative viability (PC-14; first compound 0.006325 µM): 0.0588
- relative viability (PC-14; first compound 0.02 µM): 0.0313
- relative viability (NCI-H1666; first compound 0.0002 µM): 0.594
- relative viability (NCI-H1666; first compound 0.000632 µM): 0.64
- relative viability (NCI-H1666; first compound 0.002 µM): 0.504
- relative viability (NCI-H1666; first compound 0.006325 µM): 0.477
- relative viability (NCI-H1666; first compound 0.02 µM): 0.425
- relative viability (NCI-H1650; first compound 0.0002 µM): 0.376
- relative viability (NCI-H1650; first compound 0.000632 µM): 0.323
- relative viability (NCI-H1650; first compound 0.002 µM): 0.246
- relative viability (NCI-H1650; first compound 0.006325 µM): 0.2
- relative viability (NCI-H1650; first compound 0.02 µM): 0.193
- relative viability (ABC-1; first compound 0.0002 µM): 1.04
- relative viability (ABC-1; first compound 0.000632 µM): 0.923
- relative viability (ABC-1; first compound 0.002 µM): 1.01
- relative viability (ABC-1; first compound 0.006325 µM): 0.618
- relative viability (ABC-1; first compound 0.02 µM): 0.416
- relative viability (NCI-H661; first compound 0.0002 µM): 0.519
- relative viability (NCI-H661; first compound 0.000632 µM): 0.575
- relative viability (NCI-H661; first compound 0.002 µM): 0.606
- relative viability (NCI-H661; first compound 0.006325 µM): 0.358
- relative viability (NCI-H661; first compound 0.02 µM): 0.343
- relative viability (LOU-NH91; first compound 0.0002 µM): 0.822
- relative viability (LOU-NH91; first compound 0.000632 µM): 0.841
- relative viability (LOU-NH91; first compound 0.002 µM): 0.621
- relative viability (LOU-NH91; first compound 0.006325 µM): 0.518
- relative viability (LOU-NH91; first compound 0.02 µM): 0.379
- relative viability (NCI-H2009; first compound 0.0002 µM): 0.438
- relative viability (NCI-H2009; first compound 0.000632 µM): 0.376
- relative viability (NCI-H2009; first compound 0.002 µM): 0.3
- relative viability (NCI-H2009; first compound 0.006325 µM): 0.263
- relative viability (NCI-H2009; first compound 0.02 µM): 0.181
- relative viability (BEN; first compound 0.0002 µM): 0.522
- relative viability (BEN; first compound 0.000632 µM): 0.621
- relative viability (BEN; first compound 0.002 µM): 0.426
- relative viability (BEN; first compound 0.006325 µM): 0.417
- relative viability (BEN; first compound 0.02 µM): 0.325
